Earlier results as cited in patent US20080312310A1, “Compounds, Compositions and Methods” (Cytokinetics, Inc., priority 2002, published 2008).

tested on: A549 cells; conditions: data provided by National Cancer Institute, Developmental Therapeutic Program

Compared with `NC(=O)NO` [hydroxyurea], `COc1cccc2c1C(=O)c1c(O)c3c(c(O)c1C2=O)C[C@@](O)(C(=O)CO)C[C@@H]3O[C@H]1C[C@H](N)[C@H](O)[C@H](C)O1` [doxorubicin] is 7900-fold lower in GI50: 500000 nM for the first, 63 nM for the second.

Compared with `O=c1[nH]cc(F)c(=O)[nH]1` [5-fluorouracil], `CC(=O)O[C@H]1C(=O)[C@@]2(C)[C@H]([C@H](OC(=O)c3ccccc3)[C@]3(O)C[C@H](OC(=O)[C@H](O)[C@@H](NC(=O)c4ccccc4)c4ccccc4)C(C)=C1C3(C)C)[C@]1(OC(C)=O)CO[C@@H]1C[C@@H]2O` [paclitaxel] is 250-fold lower in GI50: 1000 nM for the first, 4 nM for the second.
